Data on 24 molecules can be found in EPA's ToxValDB 9.5.

The structures appear in SMILES notation.

For one data set, the system named is Homo sapiens. Conditions: clinical; for NOAEL: M, clinical chemistry; for LEL: no effects.
Another data set deals with Mus musculus. To be noted: for LOAEL: M.
For a further data set, the system named is Daphnia magna. Conditions: acute.
The test system of another data set is Gallus gallus. Conditions: subchronic; duration: 35 days; oral; diet; no effects.
The test system of a further data set is Colinus virginianus. Conditions: acute; oral; mortality.
The test system of a further data set is Apis mellifera. Conditions: acute; dermal; mortality.

By NOAEL is commonly meant the highest tested level that showed no adverse finding. As for `O=C1OC2(c3ccccc31)c1cc(I)c([O-])c(I)c1Oc1c2cc(I)c([O-])c1I.[Na+].[Na+]` [FD&C Red 3], the NOAEL is 10000 mg/kg-day with Canidae (chronic, duration: 2 years, oral, diet, M/F, Beagle, clinical chemistry); 125 mg/kg-day in the data set with Rattus norvegicus (repeat dose other, oral, diet, other); 1 mg/kg-day in the data set on Homo sapiens (duration: 14 days, oral, capsule). As for `[Fe+2]` [Fe +2 ion], the NOAEL in the data set with Rattus norvegicus (developmental, development) stood at 380 mg/kg-day; in the data set on Mus musculus (developmental, development), 380 mg/kg-day.

Broadly, the LOAEL is the lowest dose or exposure tested at which an adverse effect was seen. Take `C/C=C/c1ccc(O)c(OC)c1` [Isoeugenol]: in the data set on Daphnia magna, the NOEC was 0.4 mg/L. In the data set with Mus musculus (chronic, duration: 2 years, histopathology: neoplastic), this molecule displayed an LOAEL of 75 mg/kg-day.

As to `Cc1cc(OC(C)C)ccc1C(=O)C(C)(C)NC(=O)c1sccc1C` [Isofetamid], the NOAEL in the data set on Canidae (chronic, duration: 1 years, Dog Other, body weight) worked out at 1.57 mg/kg-day; in the data set with Canidae (subchronic, duration: 90 days, oral, Dog Other, body weight), 5.34 mg/kg-day.

The molecule `Cl.Cl.[Cu+2].[NH-][C@@H](CCCCN)C(=O)[O-].[NH-][C@@H](CCCCN)C(=O)[O-]` [L-Lysine, copper complex] came in with an NOAEL with Homo sapiens (duration: 12 weeks, oral) of 10 mg/day. In the case of `[Cl-].[Mn+2].[Mn+2].[OH-].[OH-].[OH-]` [Manganese chloride hydroxide (Mn2Cl(OH)3)], the LEL in the data set with Gallus gallus is 1920 mg/kg-day.

Turning to `CSSC` [Methyl disulfide], the LD50 was more than 125 mg/kg in the data set with Rattus norvegicus (acute, oral, mortality); 342 mg/kg in the data set on Colinus virginianus; more than 100 µg/piece with Apis mellifera. The NOAEC with Rattus norvegicus (reproduction developmental, body weight) was 5 ppm; in the data set on Rattus norvegicus (reproduction developmental, inhalation, no effects), 308 mg/m3; in the data set on Rattus norvegicus (subchronic, duration: 90 days, inhalation, body weight), 77 mg/m3. For the molecule `CN1CCCC1=O` [N-Methyl-2-pyrrolidone], the NOAEL in the data set with Mus musculus (chronic, M/F, B6C3F1, organ weight) was determined as 90 mg/kg-day. Take `C=C(/C=C\C[C@@H](O)[C@@H](O)[C@H](O)C/C=C/C=C\[C@@H](O)C[C@@H]1O[C@H](C[C@@H](O)[C@H](O)C[C@H]2O[C@H]([C@H](O)[C@H](O)CC[C@H](O)/C=C/[C@H](C)[C@@H](O)C[C@]3(O)O[C@H](C[C@@H](O)CCCCCCC[C@@]45C[C@@H](C)C[C@@](C)(O4)[C@@H](C[C@@H](C)CCCCC[C@@H](O)[C@H](O)[C@H](O)[C@@H](O)[C@H](O)[C@H]4O[C@H](C[C@H](O)[C@H](O)/C(C)=C/[C@H](O)C[C@@H](C)[C@H](O)C(=O)N/C=C/C(=O)NCCCO)[C@H](O)[C@@H](O)[C@@H]4O)O5)[C@H](O)[C@@H](O)[C@H]3O)C[C@@H](O)[C@@H]2O)[C@@H](O)[C@H](O)[C@H]1O)CC[C@H](O)[C@@H](O)[C@H](O)[C@H](C)C[C@H]1O[C@H](/C=C\[C@@H](O)[C@H](O)C[C@@H]2C[C@@H]3C[C@H](O2)[C@@H](CC[C@H]2O[C@H](CN)C[C@H]2O)O3)[C@@H](O)[C@H](O)[C@H]1O` [Palytoxin]: in the data set with Mus musculus (acute, oral, gavage, ICR, clinical signs), the LOAEL amounted to 0.2 mg/kg-day. In the data set on Homo sapiens (duration: 4 weeks, oral, F), `[Cl-].[K+]` [Potassium chloride] registered an LEL of 40 mg/kg-day.

Take `O=S([O-])S(=O)(=O)[O-].[Na+].[Na+]` [Sodium metabisulfite]: the NOAEL in the data set on Rattus norvegicus (chronic, duration: 2 years, oral, diet, M/F, histopathology: nonneoplastic) was 72 mg/kg-day. Take `CCCCCCCCCCCCCCCCCC(=O)OC(C)C(=O)OC(C)C(=O)[O-].[Na+]` (stereo not drawn) [Sodium stearoyl lactylate]: the NOAEL in the data set with Rattus norvegicus (chronic, duration: 1 years, M/F, Wistar, no effects) is 2200 mg/kg-day. For `NC1=N[C@H](O)[C@H]2[C@H]3O[C@]4(O)O[C@@H]([C@@H](O)[C@@]2(N1)[C@@H]4O)[C@]3(O)CO` [Tetrodotoxin], the LEL in the data set with Mus musculus (acute, injection, intraperitoneal, no effects) came out at 0.025 mg/kg-day. This molecule displayed an NOAEL in the data set with Mus musculus (acute, oral, other) of 0.075 mg/kg-day. In the data set on Rattus norvegicus (subchronic, duration: 90 days, oral, diet), `Cc1ncc(C[n+]2csc(CCO)c2C)c(N)n1.Cl.[Cl-]` [Thiamine hydrochloride] showed an NOAEL of 36 mg/kg-day. On to `[O]=[Ti]=[O]` [Titanium dioxide], for which, in the data set with Rattus norvegicus (chronic, duration: 103 weeks, oral, diet, M/F, Fischer 344, no effects), the NOAEL was determined as 2250 mg/kg-day.

On to `CNC(=O)C(C)(C(C)C)C(C)C` [Trimethyl isopropyl butanamide], for which, in the data set with Rattus norvegicus (chronic, duration: 14 weeks, oral, diet, M/F, histopathology: nonneoplastic), the NOEL was 5 mg/kg-day.

In the case of `COc1nc(NC(=O)NS(=O)(=O)c2ccccc2C(F)(F)F)nc(C(F)(F)F)n1` [Tritosulfuron], the NOAEL is 6 mg/kg-day with Canidae (chronic, duration: 12 months, oral, Dog Other, organ weight) and 15 mg/kg-day in the data set with Canidae (subchronic, duration: 90 days, oral, Dog Other).

On to `COc1ccc(C=O)cc1OC` [Veratraldehyde], for which, in the data set with Rattus norvegicus (subchronic, duration: 13 weeks, oral, gavage, no effects), the NOAEL turned out to be 400 mg/kg-day. For `CC(C)=CCC/C(C)=C/C=C/C(C)=C/C=C/C(C)=C/C=C/C=C(C)/C=C/C=C(C)/C=C/C=C(\C)CCC=C(C)C` [all-trans-Lycopene], the NOAEL with Rattus norvegicus (chronic, duration: 1 years, clinical chemistry) is 50 mg/kg-day. As for `CC1=C(/C=C/C(C)=C/C=C/C(C)=C/C=C/C=C(C)/C=C/C=C(C)/C=C/C2=C(C)CCCC2(C)C)C(C)(C)CCC1` [beta-Carotene], the LEL in the data set on Homo sapiens (duration: 5 years) was not above 15 mg/day. As to `OC[C@H]1O[C@@H]2O[C@H]3[C@H](O)[C@@H](O)[C@@H](O[C@H]4[C@H](O)[C@@H](O)[C@@H](O[C@H]5[C@H](O)[C@@H](O)[C@@H](O[C@H]6[C@H](O)[C@@H](O)[C@@H](O[C@H]7[C@H](O)[C@@H](O)[C@@H](O[C@H]8[C@H](O)[C@@H](O)[C@@H](O[C@H]1[C@H](O)[C@H]2O)O[C@@H]8CO)O[C@@H]7CO)O[C@@H]6CO)O[C@@H]5CO)O[C@@H]4CO)O[C@@H]3CO` [beta-Cyclodextrin], the NOAEL in the data set on Canidae (chronic, duration: 1 years, Dog Other, clinical chemistry) came to 466 mg/kg-day; in the data set with Rattus norvegicus (chronic, duration: 6 months, oral, gavage, Long-Evans, body weight), 600 mg/kg-day; in the data set on Rattus norvegicus (chronic, duration: 52 weeks, M/F, Sprague-Dawley, clinical chemistry), 654 mg/kg-day. In the data set with Rattus norvegicus (subchronic, duration: 90 days, oral, diet, M/F, Sprague-Dawley, no effects), `C=CC(C)=CCC=C(C)C` [beta-Ocimene] registered an NOAEL of 44 mg/kg-day. For `Cc1ccc(C(C)C)cc1` [p-Cymene], in the data set with Rattus norvegicus (chronic, duration: 6 months, oral, gavage, F, organ weight), the NOAEL worked out at 154 mg/kg-day.

Turning to `CC(C)(C)c1cc(O)ccc1O` [tert-Butylhydroquinone], the NOAEL with Canidae (chronic, duration: 117 weeks, oral, diet, M/F, Beagle, clinical chemistry) was determined as 72 mg/kg-day.
